From patent US9365534B2, “Arylated camphenes, processes for their preparation and uses thereof” (Yissum Research Development Company of the Hebrew …, priority 2009, dated 2016)

Tested on: TNF-α
Assay: TNF-α production in brain following CHI (ELISA)
Format: in vivo, mice
Conditions: HU-914 5 mg/kg i.p. 1 h after CHI, sacrificed 4 hrs after CHI
Protocol: TNF-α activity can be induced by ischemic and traumatic brain injury starting at 1-2 h and reaching the peak at 4 h following CHI. (Shohami et al., 1997). The next step was to investigate the effect of HU-914 on TNF-α production after CHI. Three groups of mice (n=5-6) were subjected to CHI: • Group 1 (Control): Sham controls received anesthesia and skin incision only. • Group 2: Vehicle only (ethanol:cremophor:saline at ratio of 1:1:18), i.p. 1 h after CHI. • Group 3: HU-914, 5 mg/kg, dissolved in vehicle (1:1:18 ethanol:cremophor:saline), i.p. 1 h after CHI.
The animals were sacrificed 4 hrs after CHI by decapitation. Brains were rapidly removed and dissected into ipsilateral and contralateral cortical and hippocampal segments that were frozen in liquid nitrogen and kept at […]. […] Following sonication on ice for 45 s and centrifugation at 12,000 rpm for 20 min, protein concentrations in the supernatants were determined using the Bradford method (Bio-Rad Laboratories, Munich, Germany). Supernatants were analyzed by enzyme-linked immunosorbent assay (ELISA) for production of TNF-α, using cytokine specific kit from R&D Systems (Minneapolis, Minn.). […] TNF-α elevation was not detected in the right cortex or hippocampus (FIG. 8).

CCCCCCC(C)(C)c1cc(OC)c(C2=C[C@H]3CC[C@]2(C(=O)O)C3(C)C)c(OC)c1 [HU-914, (1S,4R)-2-(2,6-dimethoxy-4-(2-methyloctan-2-yl)phenyl)-7,7-dimethylbicyclo[2.2.1]hept-2-ene-1-carboxylic acid]
TNF-α level, left cortex: did not affect the cytokine's level
TNF-α production, hippocampus of the injured left hemisphere: inhibited TNF-α production
